Assay [1] deals with T1, SCLam (soil metagenome, UniProt Z9RH19THY1, E147S).
T1 construct: monomer in asymmetric unit
T1 sequence (Z9RH19THY1 4-269 E147S): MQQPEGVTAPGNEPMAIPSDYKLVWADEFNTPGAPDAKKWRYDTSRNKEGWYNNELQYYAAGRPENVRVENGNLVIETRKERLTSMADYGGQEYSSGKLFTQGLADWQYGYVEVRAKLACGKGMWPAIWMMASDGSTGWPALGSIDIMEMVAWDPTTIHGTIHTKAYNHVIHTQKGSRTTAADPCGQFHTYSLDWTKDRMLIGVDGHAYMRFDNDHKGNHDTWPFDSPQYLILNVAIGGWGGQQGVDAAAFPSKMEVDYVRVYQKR
The assay is described as follows: isothermal titration calorimetry. The assay is classed as binding. The note with it: 20 mM sodium phosphate pH 6.5, 20 °C. From the text:
isothermal titration calorimetry on SCLam

For assay [2], the target named is T2, TpLam (Thermotoga petrophila, UniProt A5IL44).
T2 construct: gene Tpet_0899; purified preparation
T2 sequence (A5IL44 18-641): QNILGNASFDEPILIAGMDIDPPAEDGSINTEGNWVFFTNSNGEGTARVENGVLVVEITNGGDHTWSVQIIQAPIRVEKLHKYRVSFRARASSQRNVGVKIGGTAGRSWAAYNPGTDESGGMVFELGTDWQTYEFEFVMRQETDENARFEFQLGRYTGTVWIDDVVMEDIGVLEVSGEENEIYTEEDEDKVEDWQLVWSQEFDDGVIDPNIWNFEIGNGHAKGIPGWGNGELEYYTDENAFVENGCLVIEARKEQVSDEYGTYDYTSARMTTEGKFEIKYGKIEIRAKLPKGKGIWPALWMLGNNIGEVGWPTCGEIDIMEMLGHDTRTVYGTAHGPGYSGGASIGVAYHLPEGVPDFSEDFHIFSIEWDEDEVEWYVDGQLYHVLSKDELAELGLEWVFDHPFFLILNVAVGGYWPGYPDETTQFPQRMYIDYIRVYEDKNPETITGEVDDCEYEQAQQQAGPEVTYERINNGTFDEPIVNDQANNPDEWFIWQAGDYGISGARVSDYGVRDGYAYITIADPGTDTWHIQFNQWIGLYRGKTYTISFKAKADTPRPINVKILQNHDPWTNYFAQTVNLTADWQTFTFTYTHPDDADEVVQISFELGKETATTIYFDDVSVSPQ
Description: capillary zone electrophoresis of hydrolysis products. The note with it: 5 mM substrate, 10 μM enzyme, 70 °C, overnight. The assay is classed as biochemical.

The mark [3] stands for this setting: sequential binding model, site 1 (negative subsites).

Take `OC[C@H]1O[C@@H](O[C@H]2[C@H](O)[C@@H](O)[C@H](O[C@H]3[C@H](O)[C@@H](O)[C@H](O[C@H]4[C@H](O)[C@@H](CO)OC(O)[C@@H]4O)O[C@@H]3CO)O[C@@H]2CO)[C@H](O)[C@@H](O)[C@@H]1O` (stereo partly drawn) [BGB, 1,3-β-D-cellotriosyl-glucose]: the “Ka × 10^4 (M^-1)” value in assay [1] (single-site model) was 66.7 (±1.4) × 10^4.
Same read-out and setting: under `OC[C@H]1O[C@@H](O[C@H]2[C@H](O)[C@@H](O)[C@H](O[C@@H]3[C@@H](O)[C@H](O[C@H]4[C@H](O)[C@@H](O)C(O)O[C@@H]4CO)O[C@H](CO)[C@H]3O)O[C@@H]2CO)[C@H](O)[C@@H](O)[C@@H]1O` (stereo partly drawn) [BGC, 1,3-β-D-cellobiosyl-cellobiose] stands 0.59 (±0.07) × 10^4.
For the compound `OC[C@H]1O[C@@H](O[C@H]2[C@H](O)[C@@H](O)[C@H](O[C@H]3[C@H](O)[C@@H](O)[C@H](O[C@H]4[C@H](O)[C@@H](O)[C@H](O[C@H]5[C@H](O)[C@@H](O)C(O)O[C@@H]5CO)O[C@@H]4CO)O[C@@H]3CO)O[C@@H]2CO)[C@H](O)[C@@H](O)[C@@H]1O` (some centres unmarked) [C5, cellopentaose], the “capillary zone electrophoresis of hydrolysis products” value in assay [2] is “we also evaluated the activity of the TpLam from Thermotoga petrophila”.
Turning to `OC[C@H]1O[C@@H](O[C@H]2[C@H](O)[C@@H](O)[C@H](O[C@H]3[C@H](O)[C@@H](O)[C@H](O[C@H]4[C@H](O)[C@@H](O)[C@H](O[C@H]5[C@H](O)[C@@H](O)[C@H](O[C@H]6[C@H](O)[C@@H](O)C(O)O[C@@H]6CO)O[C@@H]5CO)O[C@@H]4CO)O[C@@H]3CO)O[C@@H]2CO)[C@H](O)[C@@H](O)[C@@H]1O` (some centres unmarked) [C6, cellohexaose], the “Ka × 10^4 (M^-1)” value in assay [1] (setting [3]) is on record as 9.7 (±0.56) × 10^4.
With `OC[C@H]1O[C@@H](O[C@@H]2[C@@H](O)[C@H](O[C@@H]3[C@@H](O)[C@H](O[C@@H]4[C@@H](O)[C@H](O[C@@H]5[C@@H](O)[C@H](O[C@H]6[C@H](O)[C@@H](CO)OC(O)[C@@H]6O)O[C@H](CO)[C@H]5O)O[C@H](CO)[C@H]4O)O[C@H](CO)[C@H]3O)O[C@H](CO)[C@H]2O)[C@H](O)[C@@H](O)[C@@H]1O` (some centres unmarked) [L6, laminarihexaose], the “Ka × 10^4 (M^-1)” value in assay [1] (setting [3]) is 17.8 (±2.2) × 10^4.
